From patent US9345786B2, “Maytansinoid derivatives” (priority 2013, dated 2016)

Legend:
tubulin = test: HTS-Tubulin Polymerization Assay Kit, tubulin polymerization in vitro; type: biochemical; conditions: 1 μM solution, 10 μL + 100 μL 4 mg/ml tubulin, 37° C., 405 nm; compared with the PBS buffer (FIG. 6)
Experimental: According to the instruction of kit, pre-warm the 96-well plate to 37° C. for 30 min prior to starting the assay. At the same time, the spectrophotometer (SpectraMax, Molecular Devices, USA) was set as follow: wavelength, 405 nm; temperature, 37° C.; Kinetic, 31 cycles of 1 reading per minute. Make cold G-PEM buffer (990 μL General Tubulin Buffer+10 μL GTP Stock) and keep it on ice. […] Immediately place the plate into the spectrophotometer and start recording using the kinetic setup described above. […] Nocodazole, the tubulin polymerization inhibitor, was set as a negative control. The metabolite Cys-3AA-MDC was prepared by reaction of 3AA-MDC with cysteine under the base DIEA in CH2Cl2. LC-MS (M+H^+) calc.: 964.5. found: 964.2. Rt: 12.97 min. The metabolite Lys-MCC-MDC was prepared by reaction of SMCC-MDC with lysine under the base DIEA in DMF. LC-MS (M+H^+) calc.: 1103.7. found: 1103.2. Rt: 13.00 and 13.18 min.

[1] = test system: multiple cancer cell lines; conditions: cited from earlier work
[2] = test system: human acute lymphoblastic leukemia line C.E.M.; conditions: cited from earlier work
[3] = test system: Lewis lung carcinoma and B-16 melanocarcinoma solid murine tumor models; conditions: mouse, in vivo; cited from earlier work

| Structure (SMILES) | inhibition of tubulin polymerization (tubulin) | further results |
| --- | --- | --- |
| COc1cc2cc(c1Cl)N(C)C(=O)C[C@H](OC(=O)[C@H](C)N(C)C(=O)CCCCCN1C(=O)C=CC1=O)[C@]1(C)OC1[C@H](C)[C@@H]1C[C@@](O)(NC(=O)O1)[C@H](OC)/C=C/C=C(\C)C2 (stereo partly drawn) [3AA-MDC, N2′-deacetyl-N2′-(6-maleimido-1-oxo-hexyl)maytansine] | more significantly inhibited the tubulin polymerization |  |
| COc1cc2cc(c1Cl)N(C)C(=O)C[C@H](OC(=O)C(C)C)[C@]1(C)O[C@@H]1[C@H](C)[C@@H]1C[C@@](O)(NC(=O)O1)[C@H](OC)/C=C/C=C(\C)C2 [Ansamitocin P3] |  | efficacy against cancer cell lines [1]: effective against multiple cancer cell lines |
| COc1cc2cc(c1Cl)N(C)C(=O)C[C@H](OC(=O)[C@H](C)N(C)C(=O)CCSC1CC(=O)N(CC3CCC(C(=O)NCCCC[C@H](N)C(=O)O)CC3)C1=O)[C@]1(C)O[C@H]1[C@H](C)[C@@H]1C[C@@](O)(NC(=O)O1)[C@H](OC)/C=C/C=C(\C)C2 (stereo partly drawn) [Lys-mcc-MDC] | more significantly inhibited the tubulin polymerization |  |
| CN[C@@H](C)C(=O)OC1CC(=O)N(C)c2cc(cc(OC)c2Cl)C/C(C)=C/C=C/C(OC)C2(O)CC(OC(=O)N2)C(C)C2OC12C (stereo partly drawn) [Cys-3AA-MDC] | more significantly inhibited the tubulin polymerization |  |
| COc1cc2cc(c1Cl)N(C)C(=O)C[C@H](OC(=O)[C@H](C)N(C)C(C)=O)[C@]1(C)O[C@H]1[C@H](C)[C@@H]1C[C@@](O)(NC(=O)O1)[C@H](OC)/C=C/C=C(\C)C2 [Maytansine] |  | inhibitory concentration, as low as [2]: ≥ 10^−7 μg/mL; inhibitory activity against tumors [3]: significant inhibitory activity |
